We go through six compounds from US12097241B2, “Methods of treating kidney failure, and/or improving or stablizing renal function using modified relaxin polypeptides” (BRISTOL-MYERS SQUIBB COMPANY, priority 2017, dated 2024).

“Also recorded” adds a separate entry of the source. Marks after values point to notes of the source that are not given here. Square brackets hold non-standard residues; d marks the D form. Ends that are not written are not given here. Phe(4-Ac) = CC(=O)c1ccc(C[C@H](N)C(=O)O)cc1

Data set [1] in a line: Rat renal blood flow studies. In kind it is in vivo, Sprague Dawley rats. The conditions noted are these: 1 mg/kg intravenously; for % change in RBF over baseline: anesthetized male Sprague Dawley rats, renal blood flow recorded for 45 min. How it is done:
Male Sprague Dawley rats (˜250-300 g) were anesthetized with sodium pentobarbital (50 mg/kg), the trachea was cannulated with PE-205 tubing to maintain airway patency, and temperature was maintained at 37° C. with a heated surgical plate. A 1.4 F pressure catheter (Millar Inc., Houston, TX) was advanced into the right carotid artery to measure aortic blood pressure. The right jugular vein was cannulated with PE-50 tubing for administration of test articles. The left kidney was exposed by a retroperitoneal incision, and a Doppler flow probe (Model 0.5 VB, Transonic System Inc., Ithaca, NY) was attached to the left renal artery to monitor blood flow. Sodium pentobarbital (15 mg/kg, intraperitoneal) was supplemented after completion of these surgical procedures. Following a 10-15 min equilibration, the relaxin was administered at 1 mg/kg intravenously in a dosing volume of 0.15 to 1.82 mL/kg over 30 seconds via an infusion pump (Harvard Apparatus, Holliston, MA). Blood pressure, heart rate and renal blood flow were continuously recorded for 45 min after relaxin administration using a Millar MPVS Ultra Signal Conditioning unit connected to a desktop computer running LabChart 7-Pro data acquisition software (ADInstruments, Dunedin, New Zealand) (Table 5). Table 5. Rat renal blood flow changes (abbreviations as in Table 3).

A short description of data set [2]: In vivo pharmacokinetic (PK) studies in rats. The settings on record: rats, SC dose 1.0 mg/kg, adjusted from 0.2 mpk. Details: species or system Sprague-Dawley rats. In a few lines:
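Male Sprague-Dawley rats (n=3) given a single 1 mg/kg IV or SC dose of relaxin constructs in 20 mM histidine, 750 mM NaCl, pH 6.0; jugular serum sampled to 72 h. Serum relaxin by ELISA; Cmax, AUCinf, C24 and half-life from non-compartmental analysis of individual profiles.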

Turning to `CCCCCCCCCCCCCC(=O)N[C@@H](CCC(=O)NCCOCCOCCOCCOCCOCCOCCOCCOCCOCCOCCOCCOCCOCCOCCOCCOCCOCCOCCOCCOCCOCCOCCOCCOCCOCCOCCOCCOCCOCCOCCOCCOCCOCCOCCOCCOCCC(=O)NCCO/N=C(\C)c1ccc(C[C@H](N)C(=O)N[C@@H](CC(C)C)C(=O)N[C@@H](Cc2ccc(O)cc2)C(=O)N[C@@H](CO)C(=O)N[C@@H](C)C(=O)N[C@@H](CC(C)C)C(=O)N[C@@H](C)C(=O)N[C@@H](CC(N)=O)C(=O)N[C@@H](CCCCN)C(=O)N[C@H]2CSSC[C@@H]3NC(=O)CNC(=O)[C@H](C(C)C)NC(=O)[C@H](Cc4c[nH]cn4)NC(=O)[C@H](CSSC[C@H](NC(=O)[C@H](CC(C)C)NC(=O)[C@H](CCCCN)NC(=O)[C@@H](NC(=O)[C@@H](NC(=O)[C@H](CCC(=O)O)NC(=O)[C@H](CCC(=O)O)NC(=O)[C@H](CCSC)NC(=O)[C@H](Cc4c[nH]c5ccccc45)NC(=O)[C@H](CO)NC(=O)[C@H](C)N)C(C)C)[C@@H](C)CC)C(=O)NCC(=O)N[C@@H](CCCNC(=N)N)C(=O)N[C@@H](CCC(=O)O)C(=O)N[C@@H](CC(C)C)C(=O)N[C@@H](C(C)C)C(=O)N[C@@H](CCCNC(=N)N)C(=O)N[C@@H](C)C(=O)N[C@@H](CCC(N)=O)C(=O)N[C@@H]([C@@H](C)CC)C(=O)N[C@@H](C)C(=O)N[C@@H]([C@@H](C)CC)C(=O)N[C@H](C(=O)NCC(=O)N[C@@H](CCSC)C(=O)N[C@@H](CO)C(=O)N[C@H](C(=O)N[C@@H](Cc4c[nH]c5ccccc45)C(=O)N[C@@H](CO)C(=O)O)[C@@H](C)O)CSSC[C@@H](C(=O)O)NC(=O)[C@H](Cc4ccccc4)NC(=O)[C@H](CCCNC(=N)N)NC(=O)[C@H](C)NC(=O)[C@H](CC(C)C)NC(=O)[C@H](CO)NC(=O)[C@H](CCCNC(=N)N)NC(=O)[C@H](CCCCN)NC(=O)[C@H]([C@@H](C)O)NC3=O)NC2=O)cc1)C(=O)O` [AQ1-PEG36-Glu-C13-CH3], the “% change in RBF over baseline” value in data set [1] is “+20^b %”. Also, the “effect on renal blood flow (in words)” value in data set [1] (rats, 1 mg/kg) is reported as “increased renal blood flow; also recorded: good renal blood flow”.

As for `CCCCCCCCCCCCCC(=O)N[C@@H](CCC(=O)NCCO/N=C(\C)c1ccc(C[C@H](N)C(=O)N[C@@H](CC(C)C)C(=O)N[C@@H](Cc2ccc(O)cc2)C(=O)N[C@@H](CO)C(=O)N[C@@H](C)C(=O)N[C@@H](CC(C)C)C(=O)N[C@@H](C)C(=O)N[C@@H](CC(N)=O)C(=O)N[C@@H](CCCCN)C(=O)N[C@H]2CSSC[C@@H]3NC(=O)CNC(=O)[C@H](C(C)C)NC(=O)[C@H](Cc4c[nH]cn4)NC(=O)[C@H](CSSC[C@H](NC(=O)[C@H](CC(C)C)NC(=O)[C@H](CCCCN)NC(=O)[C@@H](NC(=O)[C@@H](NC(=O)[C@H](CCC(=O)O)NC(=O)[C@H](CCC(=O)O)NC(=O)[C@H](CCSC)NC(=O)[C@H](Cc4c[nH]c5ccccc45)NC(=O)[C@H](CO)NC(=O)[C@H](C)N)C(C)C)[C@@H](C)CC)C(=O)NCC(=O)N[C@@H](CCCNC(=N)N)C(=O)N[C@@H](CCC(=O)O)C(=O)N[C@@H](CC(C)C)C(=O)N[C@@H](C(C)C)C(=O)N[C@@H](CCCNC(=N)N)C(=O)N[C@@H](C)C(=O)N[C@@H](CCC(N)=O)C(=O)N[C@@H]([C@@H](C)CC)C(=O)N[C@@H](C)C(=O)N[C@@H]([C@@H](C)CC)C(=O)N[C@H](C(=O)NCC(=O)N[C@@H](CCSC)C(=O)N[C@@H](CO)C(=O)N[C@H](C(=O)N[C@@H](Cc4c[nH]c5ccccc45)C(=O)N[C@@H](CO)C(=O)O)[C@@H](C)O)CSSC[C@@H](C(=O)O)NC(=O)[C@H](Cc4ccccc4)NC(=O)[C@H](CCCNC(=N)N)NC(=O)[C@H](C)NC(=O)[C@H](CC(C)C)NC(=O)[C@H](CO)NC(=O)[C@H](CCCNC(=N)N)NC(=O)[C@H](CCCCN)NC(=O)[C@H]([C@@H](C)O)NC3=O)NC2=O)cc1)C(=O)O` [AQ1-Glu-C13-CH3], in data set [1], the “% change in RBF over baseline” value is on record as −27^b %. The “effect on renal blood flow (in words)” value in data set [1] (rats, 1 mg/kg) is “impaired renal blood flow; also recorded: decreased renal blood flow”.

`CCCCCCCCCCCCCC(=O)NCCO/N=C(\C)c1ccc(C[C@H](NC(=O)CNC(=O)[C@@H]2CSSC[C@@H](C(=O)O)NC(=O)[C@H](Cc3ccccc3)NC(=O)[C@H](CCCNC(=N)N)NC(=O)[C@H](C)NC(=O)[C@H](CC(C)C)NC(=O)[C@H](CO)NC(=O)[C@H](CCCNC(=N)N)NC(=O)[C@H](CCCCN)NC(=O)[C@H]([C@@H](C)O)NC(=O)[C@@H]3CSSC[C@H](NC(=O)[C@H](CCCCN)NC(=O)[C@H](CC(N)=O)NC(=O)[C@H](C)NC(=O)[C@H](CC(C)C)NC(=O)[C@H](C)NC(=O)[C@H](CO)NC(=O)[C@H](Cc4ccc(O)cc4)NC(=O)[C@H](CC(C)C)NC(=O)[C@@H](N)CC(N)=O)C(=O)N[C@@H](CSSC[C@H](NC(=O)[C@H](CC(C)C)NC(=O)[C@H](CCCCN)NC(=O)[C@@H](NC(=O)[C@@H](NC(=O)[C@H](CCC(=O)O)NC(=O)[C@H](CCC(=O)O)NC(=O)[C@H](CCSC)NC(=O)[C@H](Cc4c[nH]c5ccccc45)NC(=O)[C@H](CO)NC(=O)[C@H](C)N)C(C)C)[C@@H](C)CC)C(=O)NCC(=O)N[C@@H](CCCNC(=N)N)C(=O)N[C@@H](CCC(=O)O)C(=O)N[C@@H](CC(C)C)C(=O)N[C@@H](C(C)C)C(=O)N[C@@H](CCCNC(=N)N)C(=O)N[C@@H](C)C(=O)N[C@@H](CCC(N)=O)C(=O)N[C@@H]([C@@H](C)CC)C(=O)N[C@@H](C)C(=O)N[C@@H]([C@@H](C)CC)C(=O)N2)C(=O)N[C@@H](Cc2c[nH]cn2)C(=O)N[C@@H](C(C)C)C(=O)NCC(=O)N3)C(=O)N[C@@H](CO)C(=O)N[C@H](C(=O)N[C@@H](Cc2c[nH]c3ccccc23)C(=O)N[C@@H](CO)C(=O)O)[C@@H](C)O)cc1` [BM25/AN1-C13-CH3]: the “% change in RBF over baseline” value in data set [1] is listed as −100^a %. For the same compound, in data set [1] (rats, 1 mg/kg), the “effect on renal blood flow (in words)” value was “impaired renal blood flow; also recorded: decreased renal blood flow”. Besides, the “death of animals after administration” value in data set [1] (rats, necropsy pale kidneys, 1 mg/kg) is listed as “fatal”.

Consider “BM25/AN1: human relaxin 2 with pAcF at B chain position 25 and asparagine at A chain position 1 (SEQ ID NO: 36, 37) (chain 1 NLYSALANKCCHVGCTKRSLARFC; chain 2 ASWMEEVIKLCGRELVRAQIAICG[Phe(4-Ac)]STWS; disulfide (positions not given here); ends not checked)”, for which the “% change in RBF over baseline” value in data set [1] is reported as −20%. Besides, the “effect on renal blood flow (in words)” value in data set [1] (rats) was “impaired renal blood flow”.

As to `CC[C@H](C)[C@@H]1NC(=O)[C@H](C)NC(=O)[C@H]([C@@H](C)CC)NC(=O)[C@H](CCC(N)=O)NC(=O)[C@H](C)NC(=O)[C@H](CCCNC(=N)N)NC(=O)[C@H](C(C)C)NC(=O)[C@H](CC(C)C)NC(=O)[C@H](CCC(=O)O)NC(=O)[C@H](CCCNC(=N)N)NC(=O)CNC(=O)[C@@H](NC(=O)[C@H](CC(C)C)NC(=O)[C@H](CCCCN)NC(=O)[C@@H](NC(=O)[C@@H](NC(=O)[C@H](CCC(=O)O)NC(=O)[C@H](CCC(=O)O)NC(=O)[C@H](CCSC)NC(=O)[C@H](Cc2c[nH]c3ccccc23)NC(=O)[C@H](CO)NC(=O)[C@H](C)N)C(C)C)[C@@H](C)CC)CSSC[C@@H]2NC(=O)[C@@H](NC(=O)[C@H](CCCCN)NC(=O)[C@H](CC(N)=O)NC(=O)[C@H](C)NC(=O)[C@H](CC(C)C)NC(=O)[C@H](C)NC(=O)[C@H](CO)NC(=O)[C@H](Cc3ccc(O)cc3)NC(=O)[C@H](CC(C)C)NC(=O)[C@@H](N)Cc3ccc(/C(C)=N/OCCNC(=O)CC[C@H](NC(=O)CCCCCCCCCCCCC(=O)O)C(=O)O)cc3)CSSC[C@H](NC(=O)CNC(=O)[C@H](C(C)C)NC(=O)[C@H](Cc3c[nH]cn3)NC2=O)C(=O)N[C@@H]([C@@H](C)O)C(=O)N[C@@H](CCCCN)C(=O)N[C@@H](CCCNC(=N)N)C(=O)N[C@@H](CO)C(=O)N[C@@H](CC(C)C)C(=O)N[C@@H](C)C(=O)N[C@@H](CCCNC(=N)N)C(=O)N[C@@H](Cc2ccccc2)C(=O)N[C@H](C(=O)O)CSSC[C@@H](C(=O)NCC(=O)N[C@@H](CCSC)C(=O)N[C@@H](CO)C(=O)N[C@H](C(=O)N[C@@H](Cc2c[nH]c3ccccc23)C(=O)N[C@@H](CO)C(=O)O)[C@@H](C)O)NC1=O` [AQ1-Glu-C13-COOH], the “% change in RBF over baseline” value in data set [1] is given as “+14^b %”.

In the case of “AQ1-20kDa PEG: AQ1 relaxin conjugated to PEG with an average MW of 20 kDa (chain 1 XLYSALANKCCHVGCTKRSLARFC; chain 2 ASWMEEVIKLCGRELVRAQIAICGMSTWS; non-natural residues)”, the “Rat PK AUC Total” value in data set [2] came to 1.475 µM·h. The level at time molar at 24 h in data set [2] (read-out: Rat PK C24) turned out to be 39 nM. For the same compound, the “% change in RBF over baseline” value in data set [1] is on record as “+21%”. For the same compound, the “effect on renal blood flow (in words)” value in data set [1] (rats) is given as “increased renal blood flow”.
